Measurements as given in ChEMBL document CHEMBL1127646, “Mechanism-based isocoumarin inhibitors for blood coagulation serine proteases. Effect of the 7-substituent in 7-amino-4-chloro-3-(isothioureidoalkoxy)isocoumarins on inhibitory and anticoagulant potency” (J Med Chem, 1994).
Peptide text beside a SMILES is read from it. * marks the point of attachment. Dansyl = CN(C)c1cccc2c(S(=O)(=O)*)cccc12; CH2Cl = ClC*

Assays:
[1] = molecular target: Prothrombin (Homo sapiens) (UniProt P00734); assay: Inhibition of human thrombin (inhibitor concentration 1.2-54 uM)
[2] = Hydrolysis half life (t1/2); assay type: ADME
[3] = molecular target: Prothrombin (Bos taurus) (UniProt P00735); assay: Inhibition of bovine thrombin (inhibitor concentration 1.2-54 uM)
[4] = molecular target: Coagulation factor X (Homo sapiens) (UniProt P00742); assay: Inhibition of human factor Xa (inhibitor concentration were 3.6-44 uM)
Chain of Coagulation factor X (Homo sapiens) (P00742 41-179 limits assumed): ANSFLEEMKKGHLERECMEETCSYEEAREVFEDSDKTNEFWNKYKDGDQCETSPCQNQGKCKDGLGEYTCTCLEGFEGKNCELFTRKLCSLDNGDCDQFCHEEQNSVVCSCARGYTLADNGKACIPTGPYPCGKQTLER
Chain of Coagulation factor X (Homo sapiens) (P00742 235-488 limits assumed): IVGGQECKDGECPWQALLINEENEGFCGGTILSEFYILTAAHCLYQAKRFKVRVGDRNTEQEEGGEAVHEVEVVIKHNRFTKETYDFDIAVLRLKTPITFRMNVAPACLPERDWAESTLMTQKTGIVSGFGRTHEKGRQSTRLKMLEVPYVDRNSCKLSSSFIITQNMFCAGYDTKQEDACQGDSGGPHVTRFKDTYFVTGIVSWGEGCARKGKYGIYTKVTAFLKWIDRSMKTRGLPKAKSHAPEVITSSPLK

[5] = molecular target: Tissue factor (Homo sapiens) (UniProt P13726); assay: Anticoagulant activity in PT assay at a dose of 31 uM
Chain of Tissue factor (Homo sapiens) (P13726 whole entry): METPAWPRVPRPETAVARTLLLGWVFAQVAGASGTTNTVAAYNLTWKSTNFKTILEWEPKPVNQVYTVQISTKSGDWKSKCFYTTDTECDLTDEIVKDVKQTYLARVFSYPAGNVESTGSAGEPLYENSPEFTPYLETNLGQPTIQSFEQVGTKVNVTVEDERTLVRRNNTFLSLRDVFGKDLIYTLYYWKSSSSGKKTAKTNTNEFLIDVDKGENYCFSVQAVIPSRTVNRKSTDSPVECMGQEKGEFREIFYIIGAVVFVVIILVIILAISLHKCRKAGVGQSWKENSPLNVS

[6] = Anticoagulant activity was determined in Ortho-activated thrombofax (APTT) assay at a dose 31 uM in human dead plasma; assay type: functional
[7] = molecular target: T1, Coagulation factor VII (Homo sapiens) (UniProt P08709); assay: Inhibition of human coagulation factor VII at 7.2-44 uM
T1 sequence (whole entry): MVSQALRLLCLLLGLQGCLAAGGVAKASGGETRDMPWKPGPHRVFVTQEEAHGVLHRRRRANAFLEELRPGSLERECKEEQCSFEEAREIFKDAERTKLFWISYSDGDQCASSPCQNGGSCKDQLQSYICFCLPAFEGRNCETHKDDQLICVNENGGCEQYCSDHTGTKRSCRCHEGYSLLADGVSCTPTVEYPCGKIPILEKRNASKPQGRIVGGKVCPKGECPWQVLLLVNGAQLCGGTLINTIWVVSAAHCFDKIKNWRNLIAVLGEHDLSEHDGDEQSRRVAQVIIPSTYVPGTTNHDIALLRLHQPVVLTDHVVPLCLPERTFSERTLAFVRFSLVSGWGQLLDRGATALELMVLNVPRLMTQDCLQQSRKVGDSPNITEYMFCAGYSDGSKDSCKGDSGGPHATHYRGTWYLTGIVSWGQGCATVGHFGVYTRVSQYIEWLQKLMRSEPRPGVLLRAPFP

[8] = molecular target: T2, Coagulation factor XII (Homo sapiens) (UniProt P00748); assay: Inhibition of human coagulation factor XII (inhibitor concentration were 3.6-4.9 uM)
T2 sequence (whole entry): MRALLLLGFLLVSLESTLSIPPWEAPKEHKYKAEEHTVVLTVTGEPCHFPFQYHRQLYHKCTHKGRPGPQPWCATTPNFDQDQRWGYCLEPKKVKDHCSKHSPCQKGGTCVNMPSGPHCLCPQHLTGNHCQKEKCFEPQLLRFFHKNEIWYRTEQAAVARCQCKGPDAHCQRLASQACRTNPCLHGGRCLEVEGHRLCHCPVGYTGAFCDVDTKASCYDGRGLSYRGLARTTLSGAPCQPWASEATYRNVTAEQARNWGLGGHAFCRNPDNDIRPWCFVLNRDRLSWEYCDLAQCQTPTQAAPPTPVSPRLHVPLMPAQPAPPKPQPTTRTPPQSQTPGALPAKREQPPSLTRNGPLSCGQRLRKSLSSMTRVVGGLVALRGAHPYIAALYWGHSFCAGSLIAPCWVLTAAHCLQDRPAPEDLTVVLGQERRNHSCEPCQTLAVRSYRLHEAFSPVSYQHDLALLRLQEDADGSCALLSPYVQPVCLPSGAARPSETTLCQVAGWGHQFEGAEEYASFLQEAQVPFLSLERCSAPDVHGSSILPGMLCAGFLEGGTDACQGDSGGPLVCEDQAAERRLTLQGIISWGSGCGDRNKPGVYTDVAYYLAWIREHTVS

[9] = molecular target: Coagulation factor XI (Homo sapiens) (UniProt P03951); assay: Compound was evaluated for inhibition of enzyme human coagulation factor XI (inhibitor concentration were 0.7-0.8 uM)
Chain of Coagulation factor XI (Homo sapiens) (P03951 19-387 limits assumed): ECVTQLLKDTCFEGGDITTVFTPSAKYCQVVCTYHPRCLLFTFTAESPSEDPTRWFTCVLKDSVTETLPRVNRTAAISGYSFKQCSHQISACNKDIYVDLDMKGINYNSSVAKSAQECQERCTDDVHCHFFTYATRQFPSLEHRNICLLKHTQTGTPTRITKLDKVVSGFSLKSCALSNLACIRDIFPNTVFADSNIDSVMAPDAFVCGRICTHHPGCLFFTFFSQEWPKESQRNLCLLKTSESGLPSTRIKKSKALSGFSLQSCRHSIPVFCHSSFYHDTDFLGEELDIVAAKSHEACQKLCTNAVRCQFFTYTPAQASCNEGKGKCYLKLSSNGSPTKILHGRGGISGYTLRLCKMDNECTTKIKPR
Chain of Coagulation factor XI (Homo sapiens) (P03951 388-625 limits assumed): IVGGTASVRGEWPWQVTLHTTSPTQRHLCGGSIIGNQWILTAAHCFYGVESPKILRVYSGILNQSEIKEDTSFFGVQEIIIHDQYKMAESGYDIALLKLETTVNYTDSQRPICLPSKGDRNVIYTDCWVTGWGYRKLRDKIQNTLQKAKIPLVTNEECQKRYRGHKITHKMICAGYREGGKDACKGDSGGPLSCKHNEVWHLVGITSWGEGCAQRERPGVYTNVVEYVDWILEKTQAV

[10] = molecular target: Coagulation factor IX (Homo sapiens) (UniProt P00740); assay: Inhibition of porcine factor IXa at 8.3-82 uM; details: Sus scrofa, target entry is the homologue from another species
[11] = Anticoagulant activity was determined in Ortho-activated thrombofax (APTT) assay at a dose 32 uM in pig plasma; assay type: functional, Sus scrofa
[12] = molecular target: T3, Coagulation factor III (Sus scrofa) (UniProt Q6RCS8); assay: Anticoagulant activity in PT assay at a dose 32 uM
T3 sequence (whole entry): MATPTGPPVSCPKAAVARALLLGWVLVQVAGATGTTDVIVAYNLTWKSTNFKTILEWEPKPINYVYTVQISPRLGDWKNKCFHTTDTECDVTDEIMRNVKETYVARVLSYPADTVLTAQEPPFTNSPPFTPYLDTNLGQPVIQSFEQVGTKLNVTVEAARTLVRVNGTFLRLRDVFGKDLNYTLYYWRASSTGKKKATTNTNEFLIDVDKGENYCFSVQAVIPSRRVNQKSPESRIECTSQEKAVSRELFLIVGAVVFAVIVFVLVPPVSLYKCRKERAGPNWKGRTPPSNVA

[13] = Anticoagulant activity was determined in Ortho-activated thrombofax (APTT) assay at a dose 9.4 uM in human dead plasma; assay type: functional

SMILES	K obs / 1 [1] [M⁻¹ s⁻¹]	half-life [2] [min]	K obs / 1 [3] [M⁻¹ s⁻¹]	K obs / 1 [4] [M⁻¹ s⁻¹]	PT [5] [s]	APTT [6] [s]	K obs / 1 [7] [M⁻¹ s⁻¹]	K obs / 1 [8] [M⁻¹ s⁻¹]	K obs / 1 [9] [M⁻¹ s⁻¹]	K obs / 1 [10] [M⁻¹ s⁻¹]	APTT [11] [s]	PT [12] [s]	APTT [13] [s]
C[C@H](NC(=O)OC(C)(C)C)C(=O)N[C@@H](C)C(=O)Nc1ccc2c(Cl)c(OCCSC(=N)N)oc(=O)c2c1	970	40	1530	–	–	–	–	–	–	–	–	–	–
C[C@H](N)C(=O)N[C@@H](C)C(=O)Nc1ccc2c(Cl)c(OCCSC(=N)N)oc(=O)c2c1	880	–	1070	1490	–	–	–	–	–	–	–	–	–
CC(=O)CCC(=O)Nc1ccc2c(Cl)c(OCCSC(=N)N)oc(=O)c2c1	1770	28	–	–	42.5	>140	–	–	–	–	–	–	–
N=C(N)SCCOc1oc(=O)c2cc(NC(=O)Nc3cccc4ccccc34)ccc2c1Cl	5800	–	17500	–	–	–	–	–	–	–	–	–	–
CCOc1oc(=O)c2cc(NC(=N)N)ccc2c1Cl	–	–	55000	11000	–	–	2200	22000	60000	2850	–	–	–
N=C(N)SCCOc1oc(=O)c2cc(NC(=O)Cc3ccccc3)ccc2c1Cl	6730	–	15800	3630	–	–	1100	59000	–	2620	–	–	–
CC(=O)Nc1ccc2c(Cl)c(OCCCSC(=N)N)oc(=O)c2c1	310	68	420	–	–	–	–	–	–	–	–	–	–
N=C(N)SCCCOc1oc(=O)c2cc(NC(=O)CCc3ccccc3)ccc2c1Cl	630	66	820	–	–	–	–	–	–	–	–	–	–
O=c1oc(Cl)c(Cl)c2ccccc12	10	–	25	–	–	–	31	64	–	10	–	–	–
CC(C)(C)OC(=O)N[C@H](Cc1ccccc1)C(=O)Nc1ccc2c(Cl)c(OCCCSC(=N)N)oc(=O)c2c1	520	55	330	–	–	–	–	–	–	–	–	–	–
N=C(N)SCCCOc1oc(=O)c2ccccc2c1Cl	–	–	1400	–	–	–	450	27000	47000	90	–	–	–
CC(C)(C)OC(=O)N[C@H](Cc1ccccc1)C(=O)Nc1ccc2c(Cl)c(OCCSC(=N)N)oc(=O)c2c1	1140	42	1090	1620	–	–	–	–	–	–	–	–	–
N=C(N)SCCCOc1oc(=O)c2cc(NC(=O)Cc3ccccc3)ccc2c1Cl	610	61	600	610	–	–	610	610	610	610	–	–	–
CC(C)(C)OC(=O)N[C@@H](Cc1ccccc1)C(=O)Nc1ccc2c(Cl)c(OCCCSC(=N)N)oc(=O)c2c1	230	51	190	–	–	–	–	–	–	–	–	–	–
N=C(N)SCCCOc1oc(=O)c2cc(NC(=O)[C@H](N)Cc3ccccc3)ccc2c1Cl	470	46	400	–	–	–	–	–	–	–	–	–	–
CN(C)c1cccc2c(S(=O)(=O)N[C@@H](CCC(=O)O)C(=O)NCC(=O)N[C@@H](CCCN=C(N)N)C(=O)CCl)cccc12 (Dansyl-Glu-Gly-Arg-CH2Cl)	–	–	–	–	–	–	20	–	–	180	–	–	–
N=C(N)SCCCOc1oc(=O)c2cc(NC(=O)[C@@H](N)Cc3ccccc3)ccc2c1Cl	220	42	180	–	–	–	–	–	–	–	–	–	–
N=C(N)SCCOc1oc(=O)c2cc(NC(=O)[C@H](N)Cc3ccccc3)ccc2c1Cl	1340	21	1280	3770	–	–	4010	107000	–	1590	–	–	–
N=C(N)SCCOc1oc(=O)c2cc(NC(=O)NC(c3ccccc3)c3ccccc3)ccc2c1Cl	7050	168	–	–	18.4	121	–	–	–	–	–	–	–
N=C(N)SCCOc1oc(=O)c2cc(NC(=O)[C@@H](N)Cc3ccccc3)ccc2c1Cl	3070	18	4240	3070	–	–	–	82000	–	–	–	–	–
CC(C)NC(=O)Nc1ccc2c(Cl)c(OCCSC(=N)N)oc(=O)c2c1	5000	–	4100	–	–	–	–	–	–	–	–	–	–
C[C@H](NC(=O)Nc1ccc2c(Cl)c(OCCSC(=N)N)oc(=O)c2c1)c1ccccc1	21000	56	41300	–	–	111.2	1830	–	–	3980	>120	30	57.6
N=C(N)SCCCOc1oc(=O)c2cc(N)ccc2c1Cl	760	90	630	60	–	–	430	6200	22000	80	–	–	–
N=C(N)SCCOc1oc(=O)c2cc(NC(=O)NCc3ccccc3)ccc2c1Cl	11700	–	16800	2340	–	115.4	1810	45000	105000	2320	>120	31.1	60.1
CC(C)(C)OC(=O)N[C@@H](Cc1ccccc1)C(=O)Nc1ccc2c(Cl)c(OCCSC(=N)N)oc(=O)c2c1	1090	39	1040	–	–	–	–	–	–	–	–	–	–
N=C(N)SCCCOc1oc(=O)c2cc(NC(=O)Nc3ccccc3)ccc2c1Cl	1840	148	970	50	–	–	720	7720	–	110	–	–	–
N=C(N)SCCCOc1oc(=O)c2cc(NC(=O)NCc3ccccc3)ccc2c1Cl	700	148	420	–	–	–	–	–	–	–	–	–	–
